pIC50: −log10 of the molar value. One block for each compound: values may come before it.
Legend:
PFTase [1] = molecular target: T1, PFTase (Saccharomyces cerevisiae, UniProt P22007+P29703); assay: PFTase in vitro continuous-fluorescence assay; format: biochemical
T1 sequence (P22007 1-431): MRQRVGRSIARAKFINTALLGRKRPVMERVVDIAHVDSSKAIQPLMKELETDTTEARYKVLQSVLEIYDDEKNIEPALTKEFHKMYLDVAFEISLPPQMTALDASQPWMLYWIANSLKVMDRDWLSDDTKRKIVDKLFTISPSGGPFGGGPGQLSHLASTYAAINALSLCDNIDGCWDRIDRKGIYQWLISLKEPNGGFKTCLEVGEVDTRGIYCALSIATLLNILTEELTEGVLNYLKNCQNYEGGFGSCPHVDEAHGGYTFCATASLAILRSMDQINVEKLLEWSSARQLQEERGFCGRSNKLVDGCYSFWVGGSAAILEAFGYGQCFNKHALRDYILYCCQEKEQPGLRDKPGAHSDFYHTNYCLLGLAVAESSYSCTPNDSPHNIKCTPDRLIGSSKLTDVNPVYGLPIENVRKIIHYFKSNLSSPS
T1 sequence (P29703 1-316): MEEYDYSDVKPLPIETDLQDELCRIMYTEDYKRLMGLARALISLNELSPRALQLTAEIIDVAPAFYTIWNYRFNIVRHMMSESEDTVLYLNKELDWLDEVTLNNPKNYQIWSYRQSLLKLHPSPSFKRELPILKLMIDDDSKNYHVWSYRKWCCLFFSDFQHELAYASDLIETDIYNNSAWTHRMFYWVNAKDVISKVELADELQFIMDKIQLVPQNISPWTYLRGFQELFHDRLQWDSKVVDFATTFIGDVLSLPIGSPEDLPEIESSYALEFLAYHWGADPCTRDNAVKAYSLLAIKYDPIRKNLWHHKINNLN

PFTase [2] = conditions: read-out: IC50 for PFTase; cited from earlier work
GFP-H-Ras = assay: Cell based analysis of GFP-H-Ras processing in MDCK cells
[3] = test system: mouse models of leukemia and melanoma; conditions: intra-peritoneal delivery; cited from earlier work
[4] = at concentrations as high as 100 µM, 0.04% Triton X-100

PFTase inhibition (in words) (PFTase [1]; [4]): little to no inhibition
Compound: Clc1ccccc1C(c1ccccc1)(c1ccccc1)n1ccnc1 [Clotrimazole]

Compound: CC(=O)OCC(=O)[C@@]1(O)CC[C@H]2[C@@H]3CCC4=CC(=O)CC[C@]4(C)[C@H]3C(=O)C[C@@]21C [Cortisone acetate]
pIC50 (PFTase [2]): 4.85

PFTase inhibition (in words) (PFTase [1]; [4]): little to no inhibition
Compound: OC(Cn1cncn1)(Cn1cncn1)c1ccc(F)cc1F [Fluconazole]

PFTase inhibition (in words) (PFTase [1]; [4]): little to no inhibition
Compound: CC(=O)N1CCN(c2ccc(OCC3COC(Cn4ccnc4)(c4ccc(Cl)cc4Cl)O3)cc2)CC1 (stereo not shown) [Ketoconazole]

Compound: CCOC(=O)N1CCC(=C2c3ccc(Cl)cc3CCc3cccnc32)CC1 [Loratadine]
inhibition of GFP-H-Ras processing (GFP-H-Ras; 25 µM, 24 h): appreciable inhibition of GFP-H-Ras processing
inhibition of prenylation (GFP-H-Ras) (GFP-H-Ras; concentrations lower than 25 µM, 24 h): did not manifest observable inhibition of prenylation

Compound: Clc1ccc(COC(Cn2ccnc2)c2ccc(Cl)cc2Cl)c(Cl)c1 (stereo not shown) [Miconazole]
toxicity to cells (MDCK cells): toxicity and cell death
survival in mouse models of leukemia and melanoma [3]: promote survival
inhibition of GFP-H-Ras processing (GFP-H-Ras; 10 µM, 48 h, cells remaining alive): significant inhibition of GFP-H-Ras processing

Compound: Tetraiodophenolphthalein [TPIT]
PFTase inhibition (in words) (PFTase [1]; continuous fluorescence assay): not an inhibitor of PFTase
